ChEMBL document CHEMBL1201862, “PubChem BioAssay data set” (2004)
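Grown in 96-well plates, cells were treated for 48 hours with each compound at five concentrations. Insufficient inhibition: endpoint recorded as highest concentration tested. Here, GI50 denotes the concentration required for 50% inhibition of growth.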 Calls of active or inactive are those of the source. Cut-off read from the data, not from the text of the source: active = GI50 up to about 1.1 µM and inactive = higher.

Columns and labels:
Assay in all cases: growth of human tumour cells (NCI), 48 h
OVCAR-5 = test system: OVCAR-5
NCI-H23 = test system: NCI-H23
MDA-N = test system: MDA-N
SK-MEL-28 = test system: SK-MEL-28
NCI-H460 = test system: NCI-H460
OVCAR-8 = test system: OVCAR-8
RPMI-8226 = test system: RPMI-8226
SNB-75 = test system: SNB-75
SF-295 = test system: SF-295
PC-3 = test system: PC-3
Malme-3M = test system: Malme-3M
SK-OV-3 = test system: SK-OV-3
UACC-257 = test system: UACC-257
HCC 2998 = test system: HCC 2998
MOLT-4 = test system: MOLT-4
BT-549 = test system: BT-549
EKVX = test system: EKVX
HOP-92 = test system: HOP-92
HL-60 = test system: HL-60
Hs-578T = test system: Hs-578T

Measured: GI50

Cc1cccc(N/C(Sc2ccccc2)=C(/C(Cl)=C(Cl)Cl)[N+](=O)[O-])c1
inactive: OVCAR-5 15.1 µM | NCI-H23 20.1 µM | MDA-N 19.4 µM | SK-MEL-28 17.4 µM | NCI-H460 35 µM | OVCAR-8 16.1 µM | RPMI-8226 30.4 µM | SNB-75 26.1 µM | SF-295 17.1 µM | PC-3 27 µM | Malme-3M 16.5 µM | SK-OV-3 20.5 µM | UACC-257 20.8 µM | HCC 2998 39.4 µM | MOLT-4 21.5 µM | BT-549 20.4 µM | EKVX 16.9 µM

FC1CCN(C2(c3cccs3)CCCCC2)CC1
inactive: OVCAR-5 > 100 µM | NCI-H23 > 100 µM | MDA-N > 100 µM | SK-MEL-28 > 100 µM | NCI-H460 > 100 µM | OVCAR-8 > 100 µM | RPMI-8226 56.5 µM | SNB-75 > 100 µM | HOP-92 62.8 µM | SF-295 > 100 µM | PC-3 > 100 µM | Malme-3M 25.5 µM | HL-60 > 100 µM | SK-OV-3 > 100 µM | UACC-257 60.4 µM | HCC 2998 27.2 µM | MOLT-4 > 100 µM | BT-549 > 100 µM | EKVX > 100 µM

NC1CC(=O)c2cscc21 (stereo not given)
inactive: OVCAR-5 > 100 µM | NCI-H23 > 100 µM | MDA-N > 100 µM | SK-MEL-28 37.3 µM | NCI-H460 > 100 µM | OVCAR-8 31 µM | RPMI-8226 4.46 µM | SNB-75 > 100 µM | HOP-92 23 µM | SF-295 > 100 µM | PC-3 52.7 µM | HL-60 13.6 µM | SK-OV-3 > 100 µM | UACC-257 93.5 µM | MOLT-4 20.6 µM | BT-549 58.9 µM | EKVX > 100 µM

Cc1ccc2c(=O)c(C(=O)Nn3c(C)csc3=S)c[nH]c2n1
inactive: OVCAR-5 > 100 µM | NCI-H23 > 100 µM | MDA-N > 100 µM | SK-MEL-28 > 100 µM | NCI-H460 > 100 µM | OVCAR-8 > 100 µM | RPMI-8226 > 100 µM | SF-295 > 100 µM | PC-3 > 100 µM | Malme-3M > 100 µM | HL-60 > 100 µM | Hs-578T > 100 µM | UACC-257 > 100 µM | MOLT-4 > 100 µM | BT-549 > 100 µM | EKVX > 100 µM

Clc1ccc(C2=CCN3CC=C(c4ccc(Cl)cc4)C23)cc1
inactive: OVCAR-5 3.78 µM | NCI-H23 12 µM | MDA-N 10.8 µM | SK-MEL-28 13.9 µM | NCI-H460 9.98 µM | OVCAR-8 14.2 µM | RPMI-8226 4.66 µM | SF-295 14.6 µM | Malme-3M 13.6 µM | HL-60 4.78 µM | Hs-578T 13.5 µM | UACC-257 11.8 µM | HCC 2998 3.06 µM | MOLT-4 5.28 µM | BT-549 11.6 µM | EKVX 15.3 µM

CC1(C)OC[C@@H](O)[C@H](Br)CO1
inactive: OVCAR-5 > 100 µM | NCI-H23 > 100 µM | MDA-N > 100 µM | SK-MEL-28 > 100 µM | NCI-H460 > 100 µM | OVCAR-8 > 100 µM | RPMI-8226 67.3 µM | SNB-75 > 100 µM | SF-295 > 100 µM | PC-3 > 100 µM | Malme-3M > 100 µM | HL-60 > 100 µM | SK-OV-3 > 100 µM | Hs-578T 68.2 µM | UACC-257 > 100 µM | HCC 2998 > 100 µM | MOLT-4 65.8 µM | BT-549 > 100 µM | EKVX > 100 µM

O=C(CSCC(=O)N/N=C/c1ccccc1)N/N=C\c1ccccc1
inactive: OVCAR-5 > 100 µM | NCI-H23 > 100 µM | SK-MEL-28 > 100 µM | NCI-H460 > 100 µM | OVCAR-8 > 100 µM | RPMI-8226 38.1 µM | SNB-75 > 100 µM | HOP-92 > 100 µM | SF-295 > 100 µM | PC-3 > 100 µM | Malme-3M > 100 µM | SK-OV-3 > 100 µM | Hs-578T > 100 µM | UACC-257 > 100 µM | MOLT-4 68.2 µM | BT-549 2.2 µM | EKVX > 100 µM

CC(C)CC(NC(=O)C(CCI)Cc1ccccc1)C(=O)Nc1ccccc1 (stereo not given)
inactive: OVCAR-5 > 100 µM | NCI-H23 49 µM | MDA-N > 100 µM | SK-MEL-28 > 100 µM | NCI-H460 80.2 µM | OVCAR-8 49.5 µM | RPMI-8226 36.9 µM | SNB-75 93.8 µM | HOP-92 > 100 µM | SF-295 > 100 µM | PC-3 51.1 µM | Malme-3M > 100 µM | HL-60 18 µM | SK-OV-3 > 100 µM | UACC-257 > 100 µM | HCC 2998 > 100 µM | MOLT-4 26.7 µM | BT-549 10.8 µM | EKVX 42 µM

O=C1/C(=N/N=C(c2ccccc2)c2ccccc2)c2ccccc2-c2ccccc21
inactive: OVCAR-5 > 100 µM | NCI-H23 74 µM | SK-MEL-28 > 100 µM | NCI-H460 > 100 µM | OVCAR-8 > 100 µM | SNB-75 > 100 µM | HOP-92 25.2 µM | SF-295 64 µM | PC-3 64 µM | Malme-3M 78.5 µM | HL-60 > 100 µM | SK-OV-3 > 100 µM | Hs-578T 29.6 µM | UACC-257 > 100 µM | MOLT-4 22.5 µM | BT-549 65 µM | EKVX > 100 µM

CN(C(=O)C1=CCCCCC1)c1ccccc1I
inactive: OVCAR-5 > 100 µM | NCI-H23 38.2 µM | MDA-N 35.5 µM | SK-MEL-28 37.5 µM | NCI-H460 32 µM | OVCAR-8 38.5 µM | RPMI-8226 35.5 µM | SNB-75 13.5 µM | HOP-92 > 10 µM | SF-295 44.9 µM | PC-3 35 µM | HL-60 13.7 µM | SK-OV-3 43.5 µM | Hs-578T 1.27 µM | UACC-257 44.6 µM | HCC 2998 45.9 µM | MOLT-4 49.3 µM | EKVX 28.4 µM

CC1(C)CC(=O)C2(CC(CSc3ccccc3)C(CS(=O)(=O)c3ccccc3)C2)C(=O)C1 (stereo not given)
inactive: OVCAR-5 > 100 µM | NCI-H23 > 100 µM | SK-MEL-28 > 100 µM | OVCAR-8 > 100 µM | RPMI-8226 66.4 µM | SNB-75 4.85 µM | HOP-92 > 100 µM | SF-295 > 100 µM | PC-3 30.8 µM | SK-OV-3 > 100 µM | Hs-578T > 100 µM | UACC-257 > 100 µM | HCC 2998 > 100 µM | MOLT-4 > 100 µM | BT-549 > 100 µM | EKVX > 100 µM

O=C1c2n[nH]nc2C(=O)c2n[nH]nc21
inactive: OVCAR-5 > 100 µM | NCI-H23 > 100 µM | MDA-N > 100 µM | SK-MEL-28 > 100 µM | NCI-H460 > 100 µM | OVCAR-8 > 100 µM | RPMI-8226 > 100 µM | SNB-75 > 100 µM | HOP-92 > 100 µM | SF-295 > 100 µM | PC-3 > 100 µM | HL-60 > 100 µM | SK-OV-3 > 100 µM | Hs-578T > 100 µM | UACC-257 > 100 µM | HCC 2998 > 100 µM | MOLT-4 > 100 µM | EKVX > 100 µM

CCc1nnc(CC)n1NCCCC(=O)O
inactive: OVCAR-5 > 100 µM | NCI-H23 > 100 µM | MDA-N > 100 µM | SK-MEL-28 > 100 µM | OVCAR-8 > 100 µM | RPMI-8226 > 100 µM | SNB-75 > 100 µM | HOP-92 > 100 µM | SF-295 > 100 µM | PC-3 > 100 µM | SK-OV-3 > 100 µM | UACC-257 > 100 µM | HCC 2998 > 100 µM | MOLT-4 > 100 µM | BT-549 > 100 µM | EKVX > 100 µM

Nc1c(C(=O)c2ccc(Cl)cc2)[nH]c(Nc2ccc(Cl)cc2)c1C(=S)Nc1ccccc1
inactive: OVCAR-5 11.8 µM | NCI-H23 3.3 µM | MDA-N 6.76 µM | SK-MEL-28 4.27 µM | NCI-H460 6.58 µM | OVCAR-8 3.12 µM | RPMI-8226 14.5 µM | SNB-75 3 µM | HOP-92 5.21 µM | SF-295 2.38 µM | PC-3 10.6 µM | Malme-3M 8.34 µM | HL-60 49.5 µM | SK-OV-3 6.52 µM | UACC-257 11.2 µM | HCC 2998 2.74 µM | MOLT-4 9.44 µM | BT-549 2.93 µM | EKVX 4.9 µM

O=C1OC[C@@H]2Cc3c([nH]c4ccccc34)[C@@H](c3ccc(O)cc3)N12
inactive: OVCAR-5 39.4 µM | NCI-H23 19.3 µM | MDA-N 33 µM | SK-MEL-28 54.6 µM | NCI-H460 28.7 µM | OVCAR-8 30.1 µM | RPMI-8226 35.8 µM | SNB-75 17 µM | HOP-92 96.8 µM | SF-295 26.4 µM | PC-3 24 µM | Malme-3M 27.2 µM | HL-60 45 µM | SK-OV-3 > 56.8 µM | Hs-578T 88.3 µM | UACC-257 29.9 µM | HCC 2998 38.4 µM | MOLT-4 31.3 µM | EKVX 36.3 µM

COc1ccccc1-c1nc(O)c2ccccc2n1
inactive: OVCAR-5 > 100 µM | NCI-H23 > 100 µM | MDA-N > 100 µM | NCI-H460 > 100 µM | OVCAR-8 > 100 µM | RPMI-8226 > 100 µM | SNB-75 > 100 µM | SF-295 > 100 µM | PC-3 > 100 µM | Malme-3M > 100 µM | SK-OV-3 > 100 µM | Hs-578T > 100 µM | UACC-257 > 100 µM | HCC 2998 > 100 µM | MOLT-4 > 100 µM | BT-549 > 100 µM | EKVX 59.6 µM
